Measured values from PubChem BioAssay (NCI).
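Values below derive from 48-hour exposures of cells grown in 96-well plates, with endpoints linearly interpolated between the two concentrations bracketing the appropriate inhibition level. The concentration for full growth arrest is given as TGI.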

Assays:
Test in all cases: NCI-60 cell line screen, 48 h
[1] = tested on: EKVX NSCLC
[2] = tested on: HL-60(TB) leukemia
[3] = tested on: M14 melanoma
[4] = tested on: KM12 colon
[5] = tested on: K-562 leukemia
[6] = tested on: SK-MEL-2 melanoma
[7] = tested on: HT29 colon
[8] = tested on: ACHN renal
[9] = tested on: SNB-75 CNS
[10] = tested on: HCT-15 colon
[11] = tested on: MCF7 breast
[12] = tested on: MOLT-4 leukemia
[13] = tested on: NCI-H226 lung
[14] = tested on: TK-10 renal
[15] = tested on: SK-MEL-5 melanoma
[16] = tested on: RPMI-8226 leukemia
[17] = tested on: RXF 393 renal
[18] = tested on: OVCAR-3 ovarian
[19] = tested on: OVCAR-5 ovarian
[20] = tested on: SN12C renal
[21] = tested on: OVCAR-4 ovarian
[22] = tested on: BT-549 breast
[23] = tested on: SK-OV-3 ovarian
[24] = tested on: UACC-257 melanoma
[25] = tested on: UO-31 renal
[26] = tested on: A498 renal
[27] = tested on: MDA-N
[28] = tested on: U251 CNS
[29] = tested on: HOP-62 NSCLC
[30] = tested on: 786-0 renal
[31] = tested on: NCI-H460 lung
[32] = tested on: SF-295 CNS
[33] = tested on: NCI-H23 lung
[34] = tested on: UACC-62 melanoma
[35] = tested on: OVCAR-8 ovarian
[36] = tested on: HCT-116 colon
[37] = tested on: MDA-MB-231 breast
[38] = tested on: NCI/ADR-RES ovarian
[39] = tested on: SF-268 CNS
[40] = tested on: SF-539 CNS
[41] = tested on: PC-3 prostate
[42] = tested on: T-47D breast
[43] = tested on: SK-MEL-28 melanoma
[44] = tested on: COLO 205 colon
[45] = tested on: SR leukemia
[46] = tested on: SW-620 colon
[47] = tested on: SNB-19 CNS
[48] = tested on: MALME-3M melanoma
[49] = tested on: DU-145 prostate
[50] = tested on: A549 NSCLC
[51] = tested on: IGROV1 ovarian
[52] = tested on: LOX IMVI melanoma
[53] = tested on: MDA-MB-435
[54] = tested on: CCRF-CEM leukemia
[55] = tested on: HOP-92 NSCLC
[56] = tested on: CAKI-1 renal

CN(C)c1ccc(/C=C2\C[C@H]3[C@@H]4CC=C5C[C@@H](O)CC[C@]5(C)[C@H]4CC[C@]3(C)C2=O)cc1
TGI [1]: 93.7 µM | TGI [2]: > 100 µM | TGI [3]: 46 µM | TGI [4]: > 100 µM | TGI [5]: > 100 µM | TGI [6]: 41.4 µM | TGI [7]: 56.2 µM | TGI [8]: 34.8 µM | TGI [9]: 57 µM | TGI [10]: > 100 µM | TGI [11]: > 100 µM | TGI [12]: > 100 µM | TGI [13]: 42.3 µM | TGI [14]: 39.3 µM | TGI [15]: > 100 µM | TGI [16]: > 100 µM | TGI [17]: 43.9 µM | TGI [18]: 66.8 µM | TGI [19]: 46.4 µM | TGI [20]: 54.9 µM | TGI [21]: 48.2 µM | TGI [22]: > 100 µM | TGI [23]: 63.7 µM | TGI [24]: 40.2 µM | TGI [25]: 18.9 µM | TGI [26]: 38.2 µM | TGI [27]: > 100 µM | TGI [28]: 25.9 µM | TGI [29]: 38.3 µM | TGI [30]: 41 µM | TGI [31]: 33.7 µM | TGI [32]: 75.8 µM | TGI [33]: 81.2 µM | TGI [34]: 32.6 µM | TGI [35]: 19.1 µM | TGI [36]: > 100 µM | TGI [37]: 36 µM | TGI [38]: 66.8 µM | TGI [39]: 27.7 µM | TGI [40]: 27.9 µM | TGI [41]: 29.3 µM | TGI [42]: 62.8 µM | TGI [43]: 40 µM | TGI [44]: > 100 µM | TGI [45]: > 100 µM | TGI [46]: > 100 µM | TGI [47]: 39.3 µM | TGI [48]: 39.6 µM | TGI [49]: > 100 µM | TGI [50]: 44.4 µM | TGI [51]: 35.8 µM | TGI [52]: 29 µM

N#CC(C/C=C/c1ccccc1)NNC(=O)c1c(Cl)c(Cl)c(Cl)c(Cl)c1-c1nc2ccc(C(=O)c3ccccc3)cc2[nH]1 (centres undefined)
TGI [1]: 47.4 µM | TGI [2]: 54.5 µM | TGI [3]: 30.9 µM | TGI [53]: 51.9 µM | TGI [4]: > 100 µM | TGI [5]: 55.2 µM | TGI [6]: 45 µM | TGI [7]: 33.2 µM | TGI [8]: 97.3 µM | TGI [9]: 46.4 µM | TGI [10]: 29.2 µM | TGI [11]: 36.2 µM | TGI [12]: 81.5 µM | TGI [13]: 41.6 µM | TGI [14]: 66 µM | TGI [54]: 20.3 µM | TGI [55]: 73.3 µM | TGI [15]: 32 µM | TGI [16]: 50.2 µM | TGI [17]: 39.8 µM | TGI [18]: 37.4 µM | TGI [56]: > 100 µM | TGI [19]: 94.7 µM | TGI [20]: 32.7 µM | TGI [21]: 73.9 µM | TGI [22]: 54.4 µM | TGI [23]: 55.5 µM | TGI [24]: > 100 µM | TGI [25]: > 100 µM | TGI [26]: 41.9 µM | TGI [27]: 19.4 µM | TGI [28]: 25 µM | TGI [29]: 24.8 µM | TGI [30]: 30.2 µM | TGI [32]: 22.4 µM | TGI [33]: 55.8 µM | TGI [35]: 37.1 µM | TGI [36]: 62.2 µM | TGI [37]: 34.4 µM | TGI [38]: 31 µM | TGI [40]: 26.9 µM | TGI [41]: 35.9 µM | TGI [42]: 63.8 µM | TGI [43]: > 100 µM | TGI [44]: 42 µM | TGI [45]: 45.2 µM | TGI [46]: > 100 µM | TGI [47]: 35.8 µM | TGI [49]: 50.7 µM | TGI [50]: 55.4 µM | TGI [51]: > 100 µM | TGI [52]: 28.5 µM
